The values that follow are results of earlier work, collected in patent US20140045904A1, “NIACIN FORMULATIONS AND METHODS WITH REDUCED FLUSHING SIDE EFFECT” (priority 2010, published 2014).

For data set [1], the system named is niacin-induced flushing. The conditions noted are these: rofecoxib: single dose of 500 mg immediate-release niacin; laropiprant: clinical trials; aspirin: oral niacin.
Data set [2] relates to rat macrophages. The conditions noted are these: dual inhibitor of COX-1 and COX-2.
Data set [3] relates to HDL cholesterol. Conditions: low doses of niacin (300-1,000 mg/day).
Data set [4] relates to PGD-2. Conditions: niacin given orally (500 mg).
Data set [5] has as its system prostacyclin (PGI-2). Conditions: ingestion of oral niacin.
The target of data set [6] is COX-2 (Homo sapiens, UniProt P35354). The conditions noted are these: while sparing COX-1.
COX-2, sequence (P35354 18-604): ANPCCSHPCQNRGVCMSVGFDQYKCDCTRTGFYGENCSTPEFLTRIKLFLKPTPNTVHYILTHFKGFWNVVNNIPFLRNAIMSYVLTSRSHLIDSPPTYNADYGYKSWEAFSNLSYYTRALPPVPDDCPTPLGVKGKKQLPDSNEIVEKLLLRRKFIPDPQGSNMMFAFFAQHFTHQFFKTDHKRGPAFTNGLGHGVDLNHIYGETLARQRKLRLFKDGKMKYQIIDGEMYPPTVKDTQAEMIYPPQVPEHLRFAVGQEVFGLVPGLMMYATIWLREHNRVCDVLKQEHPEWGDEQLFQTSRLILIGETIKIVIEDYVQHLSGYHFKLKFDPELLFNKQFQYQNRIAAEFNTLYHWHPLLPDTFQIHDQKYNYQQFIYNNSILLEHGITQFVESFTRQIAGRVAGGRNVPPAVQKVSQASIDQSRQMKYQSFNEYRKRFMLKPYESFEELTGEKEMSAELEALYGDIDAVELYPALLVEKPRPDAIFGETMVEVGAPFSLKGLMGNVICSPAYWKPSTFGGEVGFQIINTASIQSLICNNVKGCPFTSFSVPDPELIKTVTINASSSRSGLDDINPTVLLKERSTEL

As to `CC(=O)Oc1ccccc1C(=O)O` [aspirin], the “effect of pretreatment on flushing from niacin” value (from here on “effect of pretreatment”) in data set [1] was “can suppress the flush”.

Turning to `COc1ccc2c(c1)c(CC(=O)O)c(C)n2C(=O)c1ccc(Cl)cc1` [indomethacin], the “endogenous production of PGE-2 and PGD-2” value in data set [2] was “suppressed”.

As to `CS(=O)(=O)c1cc(F)cc2c3c(n(Cc4ccc(Cl)cc4)c12)[C@@H](CC(=O)O)CC3` [laropiprant], the “effect of pretreatment” value in data set [1] is reported as “substantially reduced, but fell far short of eliminating”.

Take `O=C(O)c1cccnc1` [niacin, pyridine-3-carboxylic acid]: in data set [3], the “raise of HDL cholesterol” value is on record as “up to 45%”. In addition, in data set [4], the “increase of levels of the major metabolite of PGD-2” value was 400 to 800 fold, the “time to decline of PGD-2 metabolite to near normal levels” value is 2 to 4 h and the “time to increase of PGD-2 metabolite after ingestion” value was 12 to 45 min. Also, in data set [5], the “increase in prostacyclin (PGI-2)” value is 2 fold and the “major urinary metabolite of PGE-2 (PGE-M)” value was “does not increase”.

In the case of `CS(=O)(=O)c1ccc(C2=C(c3ccccc3)C(=O)OC2)cc1` [rofecoxib], in data set [1], the “effect of pretreatment” value is recorded as “did not result in a reduction of flushing”. Moreover, the “inhibition of COX-2 in vivo” value in data set [6] is given as “about 90%”.
